Data: patent US10894014B2, “Orodispersible tablet containing Estetrol” (ESTETRA SPRL, priority 2015, dated 2021)

Legend:
[1] = target: T1, sex hormone binding globulin (SHBG) (Homo sapiens, UniProt P04278); conditions: in vitro; cited from earlier work
T1 sequence (P04278 30-402): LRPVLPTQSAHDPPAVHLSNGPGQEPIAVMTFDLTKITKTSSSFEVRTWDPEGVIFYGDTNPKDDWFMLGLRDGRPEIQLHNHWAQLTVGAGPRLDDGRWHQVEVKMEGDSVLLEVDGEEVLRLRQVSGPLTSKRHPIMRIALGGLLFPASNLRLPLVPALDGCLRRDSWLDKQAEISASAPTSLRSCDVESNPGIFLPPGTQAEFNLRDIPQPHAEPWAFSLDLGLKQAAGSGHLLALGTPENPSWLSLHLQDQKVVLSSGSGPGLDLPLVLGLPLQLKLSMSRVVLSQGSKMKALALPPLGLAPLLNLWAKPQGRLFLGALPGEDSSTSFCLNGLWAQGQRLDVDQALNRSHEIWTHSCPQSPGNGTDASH

[2] = tested on: estrogen receptors; conditions: in vitro; cited from earlier work
[3] = tested on: DMBA mammary tumour; conditions: extent and dose level similar to tamoxifen and to ovariectomy; cited from earlier work
[4] = humans, cited from earlier work
[5] = tested on: production of SHBG; conditions: in vitro; cited from earlier work
[6] = Randomized, open-label, two-period, cross-over pharmacokinetic study, sublingual vs oral estetrol tablet; format: in vivo, healthy female volunteers; conditions: 10 mg estetrol sublingual vs oral tablet
Protocol: A randomized, open-label, two-period, cross-over, pharmacokinetic study is conducted to compare sublingual bioavailability of 10 mg estetrol administered in one 80 mg tablet with oral availability of estetrol contained in a 83 mg tablet containing 10 mg estetrol. These tablets are administered sublingually and orally to healthy female volunteers under fasting conditions.
Ten healthy female subjects are selected on the basis of the following criteria: age of 45-65 years (inclusive), nonsmokers or past smokers (at least 6 months before dosing), body-mass index (BMI)=18.5 to 30 kg/m^2 (inclusive at the time of the screening).
At the start of the first and the second period of the study, between 07:00 am and 07:28 am, 5 subjects receive a single dose of the sublingual formulation of estetrol by administering one estetrol tablet (tablet weight 80 mg; 10 mg estetrol) and 5 subjects receive a single oral dose of the oral estetrol formulation by administering one estetrol tablet (tablet weight 83 mg; 10 mg estetrol), ingested together with 200 ml water. […]
The estetrol concentration in the collected blood samples is determined by means of HPLC/MS/MS. The concentrations of glucuronided estetrol (D-ring) in the urine samples is also determined with the help of HPLC/MS/MS.

[7] = tested on: human breast cancer cells; conditions: in vitro; cited from earlier work
[8] = tested on: vagina, uterus, body weight, bone mass, bone strength, hot flushes, ovulation; conditions: dose-dependent; cited from earlier work

## C[C@]12CC[C@@H]3c4ccc(O)cc4CC[C@H]3[C@@H]1[C@@H](O)[C@@H](O)[C@@H]2O [estetrol, 1,3,5 (10)-estratrien-3,15α,16α,17β-tetrol]
[1]
  binding to SHBG: does not bind
[2]
  binding to estrogen receptors, selectivity: binds highly selective to the estrogen receptors with preference for the ERα form
[3]
  tumour development: prevented tumour development
[4]; oral
  oral bioavailability: high and dose-proportional
[4]
  terminal elimination half-life: about 28 hours
[5]
  stimulation of production of SHBG: does not stimulate
[6]
  impact on a liver function parameter: less impact on a liver function parameter
[7]
  effect in the presence of 17β-estradiol: anti-estrogenic effect
[8]
  estrogenic effects in rat models: estrogenic effects on the vagina, the uterus (both myometrium and endometrium), body weight, bone mass, bone strength, hot flushes and on ovulation (inhibition)
